Experimental data taken from US11360080B2, “AhR-ROR-γt complex as a biomarker and therapeutic target for autoimmune disease and IL-17A-associated disease” (NATIONAL HEALTH RESEARCH INSTITUTES, priority 2018, dated 2022).
Structures can show the parent of a compound that is named as a salt.

Key:
[1] = tested on: human peripheral blood T cells; experiment: ELISA of IL-17A in supernatants of human T cells stimulated with anti-CD3/CD28; assay type: cell-based; details: 1 μM or 5 μM for 3 days
Experimental: Means±SD are shown, (b) ELISA of IL-17A in supernatants of human T cells. T cells were stimulated with anti-CD3/CD28 and treated with C1 (verteporfin) (1 μM or 5 μM) or C2 (1 μM or 5 μM) for 3 days. HC, healthy control; SLE, systemic lupus erythematosus; RA, rheumatoid arthritis; AS, ankylosing spondylitis; PsA, psoriatic arthritis; PSS, primary Sjögren's syndrome. Means±SD are shown. C1 denotes verteporfin; C2 denotes alexidine dihydrochloride.
We further studied whether IL-17A production is abolished by the inhibitors of GLK-induced AhR-RORγt complex in human and murine T cells. We first tested the inhibitor experiment using murine T cells stimulated with TCR signaling (anti-CD3 plus anti-CD28 antibodies). […] Next, we studied the blocking effect of IL-17 production by the treatment of C1 (verteporfin) or C2 (alexidine dihydrochloride) using human peripheral blood T cells. […] Taken together, GLK inhibitors (verteporfin and alexidine dihydrochloride) inhibit GLK-induced AhR-RORγt complex and IL-17A production in human autoimmune patient T cells, as well as the disease severity of autoimmune animal models. Thus, GLK, GLK signaling, or GLK-induced AhR-RORγt complex can be a promising therapeutic target for autoimmune diseases.

GLK kinase domain = target: T1, GLK kinase domain (Homo sapiens, UniProt Q8IVH8); experiment: In vitro GLK kinase assay (ADP-GLO) with kinase-dead PKCθ (K409W) as substrate; assay type: biochemical; details: screening of 101,200 compounds
T1 construct: recombinant proteins of the GLK kinase-domain (1 μg) were incubated with recombinant proteins of kinase-dead PKCθ
T1 sequence (Q8IVH8 16-273 limits assumed): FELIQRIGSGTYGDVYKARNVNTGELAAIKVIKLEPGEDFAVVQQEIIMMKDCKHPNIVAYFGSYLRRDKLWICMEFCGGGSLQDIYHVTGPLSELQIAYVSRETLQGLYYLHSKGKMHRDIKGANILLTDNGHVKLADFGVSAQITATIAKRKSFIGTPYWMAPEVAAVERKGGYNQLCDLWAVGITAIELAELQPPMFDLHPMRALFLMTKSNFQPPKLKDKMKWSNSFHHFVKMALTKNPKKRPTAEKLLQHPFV
Experimental: (§1) (A) Luciferase activity of NF-κB-driven reporter assays in stable GLK-transfected CHO-K1 cells that were treated with or without the GLK inhibitor C1 (verteporfin) under the indicated concentration. The fold changes are presented relative to the value of vector control. (B) Recombinant proteins of GLK kinase domain plus recombinant proteins of GST-tagged kinase-dead PKCθ (K409W) were subjected to in vitro kinase assays in the presence or absence of the GLK inhibitor C1 (verteporfin). Means±SD of are shown. *, P value<0.05; **, P value<0.01 (two-tailed Student's t-test). (C) The AhR-RORγt complex was inhibited by the GLK inhibitor. Confocal microscopy of proximity ligation assays (PLA) for the interaction between AhR and either RORγt or phospho-RORγt (S489) in peripheral blood T cells treated with C1 (verteporfin) (5 μM) for 30 min. The T cells were freshly isolated from 4 SLE patients and 1 RA patients. C1 denotes verteporfin; C2 denotes alexidine dihydrochloride. (D) Quantification of the PLA signals of (C). (E) FRET assays of HEK293T cells co-transfected with CFP-AhR, YFP-RORγt, and IKKβ plasmids.
GLK kinase activity was determined by measuring the rate of ADP production in the in vitro kinase reaction using ADP-GLO™ Kinase Assay kit. For the kinase reaction, recombinant proteins of the GLK kinase-domain (1 μg) were incubated with recombinant proteins of kinase-dead PKCθ (K409W; 0.15 μg) plus ATP (0.1 mM) or myelin basic protein (MBP) plus ATP (0.1 mM) in kinase buffer (40 mM Tris-HCl, pH7.5.20 mM MgCl2, 0.1 mg/ml BSA, 10 mM DTT and 0.1 mM Na3VO4) for 30 min at room temperature.
Cell-based high-throughput screening was conducted against a representative library of 100,000 molecules at ˜10 μM. CHO-GLK-Luc cells expressing GLK and NF-κB-luciferase reporter were used. The reaction volume was 5 μl (500 cells) per well in 1,536-well plates. There was no positive control. This high-throughput screening campaign was successful with a determined Z′ factor of 0.57˜0.60. […]

[2] = tested on: GLK-induced NF-κB-luciferase activity; experiment: NF-κB-driven luciferase reporter assay in CHO-GLK-Luc cells; assay type: cell-based; details: stable GLK-transfected CHO-K1 cells
Experimental: as §1
Cell-based high-throughput screening was conducted against a representative library of 100,000 molecules at ˜10 μM. CHO-GLK-Luc cells expressing GLK and NF-κB-luciferase reporter were used. […] This high-throughput screening campaign was successful with a determined Z′ factor of 0.57˜0.60. […]

| GLK kinase activity in vitro (GLK kinase domain) | GLK kinase activity in vitro (GLK kinase domain; listed as verteporfin) | Structure (SMILES) | IL-17A production, anti-CD3/CD28-stimulated T cells of autoimmune disease patients [1] | TCR-induced IL-17A production, T cells from healthy controls [1] | GLK signaling in cell lines (luciferase reporter) [2] |
| --- | --- | --- | --- | --- | --- |
| efficiently inhibited | most effective inhibitor | C=Cc1c(C)c2cc3nc(cc4[nH]c(cc5nc(cc1[nH]2)C(C)=C5CCC(=O)O)c(CCC(=O)OC)c4C)[C@@]1(C)C3=CC=C(C(=O)OC)[C@H]1C(=O)OC [C1, verteporfin] | drastically inhibited | significantly reduced | efficiently inhibited |
| efficiently inhibited |  | CCCCC(CC)CNC(=N)NC(=N)NCCCCCCNC(=N)NC(=N)NCC(CC)CCCC (centres unmarked) [C2, alexidine dihydrochloride] | drastically inhibited |  | efficiently inhibited |
